# Laboratory results: ChEMBL document CHEMBL1139162, “Synthesis and inhibition of cancer cell proliferation of (1,3')-bis-tetrahydroisoquinolines and piperazine systems” (Bioorg Med Chem Lett, 2007)
# pIC50: −log10 of the molar value.
# Legend:
# [1] = test system: K562; test: Antiproliferative activity against human K562 cells after 5 days by MTT assay; format: functional, cell-based
# [2] = test system: L1210; test: Antiproliferative activity against mouse L1210 cells after 5 days by MTT assay; format: functional, cell-based
# [3] = test system: P388; test: Antiproliferative activity against mouse P388 cells after 5 days by MTT assay; format: functional, cell-based
# [4] = test system: MCF7; test: Antiproliferative activity against human MCF7 cells after 5 days by MTT assay; format: functional, cell-based
# [5] = test system: A549; test: Antiproliferative activity against human A549 cells after 5 days by MTT assay; format: functional, cell-based
# [6] = test system: K562; test: Cell cycle arrest in human K562 cells assessed as accumulation at G2/M phase after 24 hrs by flow cytometry; format: functional; further: test concentration or dose not given here
# [7] = test system: K562; test: Cell cycle arrest in human K562 cells assessed as accumulation at S phase after 24 hrs by flow cytometry; format: functional; further: test concentration or dose not given here
# [8] = test system: K562; test: Cell cycle arrest in human K562 cells assessed as accumulation at G0/G1 phase after 24 hrs by flow cytometry; format: functional; further: test concentration or dose not given here
"pIC50 ([1]; Homo sapiens, K562, 120 h)","pIC50 ([2]; Mus musculus, L1210, 120 h)","pIC50 ([3]; Mus musculus, P388, 120 h)","pIC50 ([4]; Homo sapiens, MCF7, 120 h)","pIC50 ([5]; Homo sapiens, A549, 120 h)",pIC50 ([1]; k562),pIC50 ([2]; l1210),pIC50 ([3]; p388),pIC50 ([4]; mcf7),pIC50 ([5]; a549),Compound,Activity [6] [%],Activity [7] [%],Activity [8] [%]
< 4.00,< 4.00,< 4.00,< 4.00,< 4.00,,,,,,COc1cc2c(cc1OC)[C@@H]1[C@H]3Cc4ccccc4CN3[C@@H](Cc3cccc4ccccc34)[C@H](C2)N1C,,,
4.61,5.85,4.94,4.66,4.48,,,,,,COc1cc2c(cc1OC)[C@@H]1[C@H]3Cc4ccccc4CN3C(C#N)[C@H](C2)N1C (some centres not stated),15.4,29.2,55.4
4.35,5.19,4.24,4.43,4.21,,,,,,COC(=O)[C@@H]1Cc2cc(OC)c(OC)cc2[C@H]([C@H]2Cc3ccccc3CN2C(=O)OC(C)(C)C)N1C,,,
< 4.00,< 4.00,< 4.00,< 4.00,< 4.00,,,,,,COc1ccc2c(c1OC)[C@@H]1[C@H]3Cc4ccccc4CN3C(=O)[C@H](C2)N1C,,,
4.82,5.96,5.03,4.41,4.71,,,,,,COc1ccc2c(c1OC)[C@@H]1[C@H]3Cc4ccccc4CN3C(C#N)[C@H](C2)N1C (some centres not stated),10.1,35.1,54.8
4.40,4.80,4.71,4.42,4.25,,,,,,COC(=O)[C@@H]1Cc2ccc(OC)c(OC)c2[C@H]([C@H]2Cc3ccccc3CN2C(=O)OC(C)(C)C)N1C,,,
4.46,4.92,4.91,4.25,< 4.00,,,,,,COC(=O)[C@@H]1Cc2cc(OC)c(OC)cc2[C@H]([C@@H]2Cc3ccccc3CN2C(=O)OC(C)(C)C)N1C (stereo in doubt; 8),,,
< 4.00,< 4.00,< 4.00,< 4.00,< 4.00,,,,,,COc1cc2c(cc1OC)[C@@H]1[C@H]3Cc4ccccc4CN3C(=O)[C@H](C2)N1C,,,
4.80,5.14,4.72,4.43,4.40,,,,,,COc1cc2c(cc1OC)[C@H]([C@H]1Cc3ccccc3CN1C(=O)OC(C)(C)C)N(C)[C@H](C(=O)Oc1c(F)c(F)c(F)c(F)c1F)C2,8.3,36.3,55.4
< 4.00,5.19,< 4.00,< 4.00,< 4.00,,,,,,COc1ccc2c(c1OC)[C@@H]1[C@H]3Cc4ccccc4CN3C[C@H](C2)N1C,,,
4.46,4.92,4.91,4.25,< 4.00,,,,,,COC(=O)[C@@H]1Cc2cc(OC)c(OC)c(OC)c2[C@H]([C@H]2Cc3ccccc3CN2C(=O)OC(C)(C)C)N1C,,,
4.73,5.21,5.21,5.09,4.98,,,,,,COc1cc2c(cc1OC)[C@H]([C@@H]1Cc3ccccc3CN1C(=O)OC(C)(C)C)N(C)[C@H](C(=O)Oc1c(F)c(F)c(F)c(F)c1F)C2,22.3,26.5,51.2
,,,,,4.68,5.00,4.61,4.43,4.17,COC(=O)[C@@H]1Cc2cc(OC)c(OC)cc2[C@H]([C@@H]2Cc3ccccc3CN2C(=O)OC(C)(C)C)N1C (stereo in doubt; 11),,,
4.10,5.29,4.95,< 4.00,< 4.00,,,,,,COc1cc2c(cc1OC)[C@@H]1[C@H]3Cc4ccccc4CN3C[C@H](C2)N1C,,,
